Read-outs that look alike come from different tables or passages of the source.
What was measured:
[1] = tested on: Acinetobacter baumannii strains; assay: Minimum inhibitory concentration (CLSI M07), Example 2, 20 strains; assay type: cell-based
[2] = Pharmacokinetics in plasma and bronchoalveolar lavage fluid of female CD-1 mice; assay type: in vivo; conditions: female, CD-1, mouse
Protocol: An appropriate amount of the test drug was accurately weighed and mixed with the appropriate volume of vehicle (5% DMSO+0.5% Tween 80 in normal saline) to obtain a clear solution for the test in Table 9. The formulation solution for injection was prepared to sterile filtration through a 0.22 μm filter prior to administration. The mice were dosed with the drug within 30 min after the formulated solution for injection was prepared. A 1.5 mL of the formulation solution for injection was transferred into a polypropylene microcentrifuge tube for dose verification by LC/UV or LC-MS/MS.
All blood samples were transferred to pre-frozen EDTA-K2 tubes and placed on wet ice until centrifugation. […]
Plasma: approximately 100 μL of blood sample was transferred into pre-cooled commercial EDTA-K2 tubes and placed on wet ice until centrifugation. After the blood samples were centrifuged at approximately 4° C. and 3, 200 g for 10 min, plasma was collected and transferred to pre-labeled 96-well plates or polypropylene tubes, flash frozen on dry ice, and stored at ≤−60° C. until the analysis by LC-MS/MS.
Serum: approximately 100 μL of blood sample was transferred into a tube without anticoagulant and placed on wet ice for approximately 30 min and centrifuged at 4° C. and 3,000 g for 10 min, and the serum was collected and transferred into pre-labeled PP tubes placed on wet ice. After the completion of all the collections, serum samples were stored at −60° C. until being sent to the animal experimental team to determine urea concentration.
Bronchoalveolar lavage fluid (BALF): pre-cooled tracheo-alveolar lavage fluid was injected into the trachea or predefined bronchi. After a full expansion of the lung tissue, the lavage fluid was slowly drawn out with a syringe 30 s later. The lung was lavaged three times. During the last lavage, the lung tissue was gently squeezed to restore the fluid. To prevent contamination of other lung tissues, the corresponding bronchi were ligated. Both lungs of the mice were perfused with 0.8 mL.
[…] Approximately 200 μL of the BALF samples were transferred into a polypropylene tube, rapidly frozen on dry ice, maintained at ≤−60° C., and sent to the animal experimental team to determine urea concentration. The remaining BALF samples (approximately 600 μL) were rapidly frozen on dry ice and maintained at ≤−60° C. until being submitted for drug concentration analysis by LC-MS/MS.

[3] = Stability of sulbactam sodium and avibactam sodium in different pH buffers (HPLC purity); assay type: physicochemical; conditions: 20° C., 24 h; for Purity in pH buffer (monomer): purity 100% at 0 h, alone; for Purity in pH buffer (in mixture): mixture 4:1 (sulbactam sodium 1 mg/mL, avibactam sodium 0.25 mg/mL)
[4] = cited from earlier work

NC(=O)[C@@H]1CC[C@@H]2CN1C(=O)N2OS(=O)(=O)O [Avibactam, [(2S,5R)-2-carbamoyl-7-oxo-1,6-diazabicyclo [3.2.1]oct-6-yl] bisulfate]
MIC of the strain BAA-1795 (component in the combination) ([1]; strain BAA-1795, sulbactam/avibactam 4:1, concentration of the named component): 2 µg/mL | MIC90 of the single component in the combination ([1]; sulbactam sodium:avibactam sodium = 4:1, concentration of the named component): 4 µg/mL | MIC50 of the single component in the combination ([1]; sulbactam sodium:avibactam sodium = 4:1, concentration of the named component, Examples 1 and 2): 2 µg/mL | Kp at 0.5 h ([2]; BALF/plasma, intravenous, 25 mg/kg, 0.50 h, read-out: BALF/plasma ratio Mean): 0.0474 | Kp at 3 h ([2]; BALF/plasma, intravenous, 150 mg/kg, 3.00 h, read-out: BALF/plasma ratio Mean): 0.0319 | Kp at 5 h ([2]; BALF/plasma, intravenous, 150 mg/kg, 5.00 h, read-out: BALF/plasma ratio Mean): 0.153 | Kp at 8 h ([2]; BALF/plasma, intravenous, 150 mg/kg, 8.00 h, read-out: BALF/plasma ratio Mean): 0.211 | concentration at 0.5 h ([2]; ELF, intravenous, 0.50 h, group 01 (25 mg/kg per Table 9), read-out: ELF concentration Mean ± SD): 5400 ± 2390 ng/mL | concentration at 3 h ([2]; ELF, intravenous, 3.00 h, 150 mg/kg, read-out: ELF concentration Mean ± SD): 4730 ± 2410 ng/mL | concentration at 5 h ([2]; ELF, intravenous, 5.00 h, 150 mg/kg, read-out: ELF concentration Mean ± SD): 129 ± 75.2 ng/mL | concentration at 8 h ([2]; ELF, intravenous, 8.00 h, 150 mg/kg, read-out: ELF concentration Mean ± SD): 22.2 ng/mL | concentration at 0.5 h ([2]; bronchoalveolar lavage fluid (BALF), intravenous, 0.50 h, group 01 (25 mg/kg per Table 9), read-out: BALF concentration Mean ± SD): 849 ± 210 ng/mL | concentration at 3 h ([2]; bronchoalveolar lavage fluid (BALF), intravenous, 3.00 h, 150 mg/kg, read-out: BALF concentration Mean ± SD): 626 ± 459 ng/mL | concentration at 5 h ([2]; bronchoalveolar lavage fluid (BALF), intravenous, 5.00 h, 150 mg/kg, read-out: BALF concentration Mean ± SD): 19 ± 11.6 ng/mL | concentration at 8 h ([2]; bronchoalveolar lavage fluid (BALF), intravenous, 8.00 h, 150 mg/kg, read-out: BALF concentration Mean ± SD): 5.37 ng/mL | concentration at 0.25 h ([2]; plasma, 0.25 h, group 01 (25 mg/kg per Table 9), intravenous dripping, read-out: Plasma concentration Mean ± SD): 16500 ± 2260 ng/mL | concentration at 0.5 h ([2]; plasma, 0.50 h, group 01 (25 mg/kg per Table 9), intravenous dripping, read-out: Plasma concentration Mean ± SD): 17900 ± 2040 ng/mL | concentration at 1 h ([2]; plasma, 1.00 h, 150 mg/kg intravenous dripping, read-out: Plasma concentration Mean ± SD): 18800 ± 3070 ng/mL | concentration at 3 h ([2]; plasma, 3.00 h, 150 mg/kg intravenous dripping, read-out: Plasma concentration Mean ± SD): 18300 ± 4530 ng/mL | concentration at 4 h ([2]; plasma, 4.00 h, 150 mg/kg intravenous dripping, read-out: Plasma concentration Mean ± SD): 285 ± 226 ng/mL | concentration at 5 h ([2]; plasma, 5.00 h, 150 mg/kg intravenous dripping, read-out: Plasma concentration Mean ± SD): 123 ± 34.8 ng/mL | concentration at 6 h ([2]; plasma, 6.00 h, 150 mg/kg intravenous dripping, read-out: Plasma concentration Mean ± SD): 57.8 ± 3.1 ng/mL | concentration at 8 h ([2]; plasma, 8.00 h, 150 mg/kg intravenous dripping, read-out: Plasma concentration Mean ± SD): 28.5 ± 9.52 ng/mL | Purity in pH buffer (monomer) ([3]; pH 4.0 buffer): −24.20% | Purity in pH buffer (in mixture) ([3]; pH 4.0 buffer): −23.74% | Purity in pH buffer (monomer) ([3]; pH 4.5 buffer): −2.31% | Purity in pH buffer (in mixture) ([3]; pH 4.5 buffer): −1.42% | Purity in pH buffer (monomer) ([3]; pH 5.0 buffer): −0.71% | Purity in pH buffer (in mixture) ([3]; pH 5.0 buffer): −0.99% | Purity in pH buffer (monomer) ([3]; pH 5.5 buffer): −0.77% | Purity in pH buffer (in mixture) ([3]; pH 5.5 buffer): −0.54% | Purity in pH buffer (monomer) ([3]; pH 6.0 buffer): −1.75% | Purity in pH buffer (in mixture) ([3]; pH 6.0 buffer): −1.76% | Purity in pH buffer (monomer) ([3]; pH 7.3 buffer): −0.81% | Purity in pH buffer (in mixture) ([3]; pH 7.3 buffer): −1.06% | Purity in pH buffer (monomer) ([3]; pH 8.0 buffer): −8.87% | Purity in pH buffer (in mixture) ([3]; pH 8.0 buffer): −8.81% | Protein binding [4]: ~8%

— patent US12697325B2 (TENNOR THERAPEUTICS (SUZHOU) LIMITED, priority 2021, dated 2026)
